{"source": "patent US7741023B2", "about": "“Method for predicting immune response to neoplastic disease based on mRNA expression profile in neoplastic cells and stimulated leukocytes” (Hitachi Chemical Co., Ltd., priority 2005, dated 2010)", "tested_on": "TNF superfamily subtype 3 mRNA", "assay": "effect of dietary components on HAG-induced TNF superfamily subtype 3 mRNA in whole blood", "type": "cell-based, human", "conditions": "100 nM, pre-incubation 37° C. 1 hour, then HAG; one individual, FIG. 10", "protocol": "Triplicate aliquots of 50 μL each of heparinized whole blood was incubated with 200 μg/mL HAG at 37° C. for 2 hours. Then blood samples were applied to 96-well filterplates to trap leukocytes, and cell lysates were transferred to 96-well oligo(dT)-immobilized microplates for isolation of poly(A)^+ mRNA as described above. cDNA was synthesized on the microplates and was used for real-time polymerase chain reaction (PCR) in 384-well plates by monitoring SYBR Green fluorescence (see Morrison et al., Quantification of low-copy transcripts by continuous SYBR Green I monitoring during amplification. Biotechniques 1998; 24:954-8, 960, 96). […] The Ct was determined by analytical software (SDS, ABI). The PCR conditions were carefully optimized, so that a single appropriate peak was detected on melting curve analysis without any primer dimers. To validate the assay conditions, synthetic RNA34 was spiked into the lysis buffer, and this RNA34 was also quantitated by real time PCR. […] The Ct was set equal to the PCR cycle where certain amounts of PCR products were generated, and delta Ct (ΔCt) was also calculated by subtracting the Ct values of the un-stimulated samples from those of the stimulated samples. Since Ct is a log scale, 1 ΔCt means double or one half in quantity, and a negative ΔCt indicates an increase in expression. […]", "data": [{"compound": "O=c1c(O)c(-c2ccc(O)c(O)c2)oc2cc(O)cc(O)c12", "note": "[quercetin]", "values": [{"measurement": "HAG-induced TNF superfamily subtype 3 expression in blood pre-exposed to dietary component", "result": "significant (p=0.03) induction"}]}]}
